Patent publication US7968518B2, “Use of modified cyclosporins for the treatment of HCV disorders” (Novartis AG, priority 2003, dated 2011)

Legend:
[1] = test system: HCV in PH5CH8 cells (non-neoplastic hepatocyte cell line); test: In vitro HCV infection experiment in PH5CH8 cells, real time RT-PCR; assay type: cell-based, Hepatitis C virus (HCV); conditions: PH5CH8 cells treated with HCV-positive plasma, continuous treatment; untreated cells about 10-fold increase
Procedure: (§1) Cell culture: Huh-7 and MH-14 cells, HCV replicon cells, are cultured in Dulbecco's modified Eagle's medium (DMEM) with 10% fetal bovine serum (FBS). PH5CH8 cells are cultured in a 1:1 mixture of DMEM and F12 medium supplemented with 100 ng/ml of epidermal growth factor, 10 μu/ml of insulin, 0.36 μg/ml of hydrocortisone, 5 μg/ml of transferrin, 5 μg/ml of linoleic acid, 20 ng/ml of selenium, 4 μg/ml of glucagon, 10 ng/ml of prolactin, 10 μg/ml of gentamicin, 200 μg/ml of kanamycin, and 2% FBS.
(§2) The forward and reverse primers used in this experiment are 5′-[…]-3′ and 5′-[…]-3′, respectively. The fluorogenic probe is 5′-[…]-3′. As an internal control, ribosomal RNA is also quantified using TaqMan Ribosomal RNA Control Reagents (Applied Biosystems).

[2] = test system: HCV subgenomic replicon in MH-14 cells; test: Immunoblot analysis of HCV NS5A and NS5B proteins in MH-14 HCV replicon cells; assay type: cell-based, Hepatitis C virus (HCV); conditions: 7 days
Procedure: as §1
Immunoblot analysis: Immunoblot analysis is performed as described by K. Watashi et al., Virology 2001, 286, 391-402. The primary antibodies used in this experiment are anti-NS5A, anti-NS5B, and anti-β-actin (Sigma) antibodies.
The effect of various cyclosporins of the invention on the replication of the HCV genome using MH-14 cells, in which the HCV subgenomic replicon as shown in FIG. 1A is autonomously replicated.

[3] = test system: HCV subgenomic replicon in MH-14 cells; conditions: 7th day of treatment
Procedure: as §1, §2
(§3) Replicon RNA is analyzed in MH-14 cells treated with or without a cyclosporin of the invention or IFNα for 7 days by northern blot analysis.

[4] = test system: HCV subgenomic replicon in MH-14 cells; test: Northern blot analysis of replicon RNA in MH-14 cells; assay type: cell-based, Hepatitis C virus (HCV); conditions: 1 μg/ml, 7 days
Procedure: as §1
Northern Blot Analysis: Nothern blot analysis is performed as described by H. Kishine et al., Biochem. Biophys. Res. Commun., 2002, 47, 119-125. The probe complementary to the NS5B sequence used in this experiment is described by H. Kishine, supra.
as §3

Substance | increase of HCV RNA genome titer, 5th day vs 1st day post-inoculation [1] | amount of HCV NS5A and NS5B proteins by immunoblot analysis ([2]; 100 U/ml, positive control) | level of HCV RNA relative to the original [3] | amount of HCV NS5A and NS5B proteins by immunoblot analysis ([2]; 1 μg/ml) | amount of replicon RNA by northern blot [4]
IFNα | significant increase of the HCV RNA genome titer at these time points was not observed | undetectable |  |  | 
[MeIle]^4-Ciclosporin | significant increase of the HCV RNA genome titer at these time points was not observed |  | about 1/400 | undetectable | undetectable
